The text below walks through data of patent US12059420B2 (BRISTOL-MYERS SQUIBB COMPANY, priority 2018, dated 2024).

T1 sequence (P14902 whole entry): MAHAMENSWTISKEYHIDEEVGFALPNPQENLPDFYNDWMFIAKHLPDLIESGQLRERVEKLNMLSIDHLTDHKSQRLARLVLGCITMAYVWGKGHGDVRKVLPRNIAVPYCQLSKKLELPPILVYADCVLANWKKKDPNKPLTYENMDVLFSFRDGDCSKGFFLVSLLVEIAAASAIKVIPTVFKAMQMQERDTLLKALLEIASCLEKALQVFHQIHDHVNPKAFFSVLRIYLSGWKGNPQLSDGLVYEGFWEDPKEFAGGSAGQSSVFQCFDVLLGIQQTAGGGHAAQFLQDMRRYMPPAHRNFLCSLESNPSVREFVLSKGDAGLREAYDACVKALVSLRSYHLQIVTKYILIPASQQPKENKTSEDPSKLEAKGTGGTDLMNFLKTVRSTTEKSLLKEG

This assay addresses T1, human IDO1 (Homo sapiens, UniProt P14902).
T1 construct: expressed in transfected cells
The assay can be described thus: IDO inhibition assay in HEK293 cells stably expressing human IDO1 (kynurenine production, Ehrlich reagent, absorbance 490 nm). Format: cell-based. The settings on record: 20 hours incubation with compound, 500 nM reference standard = 100% inhibition, read-out: IDO1 HEK Human IC50. Summed up:
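HEK293 clones stably expressing human IDO1 (10,000 cells/well, phenol red-free RPMI, 10% FBS) were treated with compound for 20 hours at 37° C. After 0.2% TCA and 30 min at 50° C., kynurenine was read with Ehrlich reagent at 490 nm. IC50 was normalised to DMSO (0%) and 500 nM reference standard (100%).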
Usually IC50 stands for the midpoint of a concentration-inhibition curve. On to `CC(C)CN(Cc1ccccc1)c1cc(Nc2ccc(F)c(F)c2)cc(-c2ccccc2-c2nnn[nH]2)n1` [Example 181, 6-(2-(1H-tetrazol-5-yl)phenyl)-N2-benzyl-N4-(3,4-difluorophenyl)-N2-isobutylpyridine-2,4-diamine], for which the IC50 came to 4.3 nM.
Take `CC(C)CN(Cc1ccccc1)c1cc(Nc2ccc3c(c2)OC(F)(F)O3)cc(-c2ccccc2-c2nnn[nH]2)n1` [Example 182, 6-(2-(1H-tetrazol-5-yl)phenyl)-N2-benzyl-N4-(2,2-difluorobenzo[d][1,3]dioxol-5-yl)-N2-isobutylpyridine-2,4-diamine]: the IC50 was 9.5 nM.
With `Cc1cc(F)cnc1Nc1cc(-c2ccccc2-c2nnn[nH]2)nc(N(Cc2ccccc2)CC(C)C)c1` [Example 183, 6-(2-(1H-tetrazol-5-yl)phenyl)-N2-benzyl-N4-(5-fluoro-3-methylpyridin-2-yl)-N2-isobutylpyridine-2,4-diamine], the IC50 is 129 nM.
In the case of `CC(C)CN(Cc1ccccc1)c1cc(Nc2cc(F)ccc2C(=O)O)cc(-c2ccccc2-c2nnn[nH]2)n1` [Example 185, 2-((2-(2-(1H-tetrazol-5-yl)phenyl)-6-(benzyl(isobutyl)amino)pyridin-4-yl)amino)-4-fluorobenzoic acid] it was 2740 nM; in that of `COc1ccc(Nc2cc(-c3ccccc3-c3nnn[nH]3)nc(N(Cc3ccccc3)CC(C)C)c2)c(F)c1` [Example 186, 6-(2-(1H-tetrazol-5-yl)phenyl)-N2-benzyl-N4-(2-fluoro-4-methoxyphenyl)-N2-isobutylpyridine-2,4-diamine], 3.5 nM.
As for `Cc1ccc(Nc2cc(-c3ccccc3-c3nnn[nH]3)nc(N(Cc3ccccc3)CC(C)C)c2)c(C#N)c1` [Example 187, 2-((2-(2-(1H-tetrazol-5-yl)phenyl)-6-(benzyl(isobutyl)amino)pyridin-4-yl)amino)-5-methylbenzonitrile], the figure is 101 nM; as for `COc1cc(Nc2cc(-c3ccccc3-c3nnn[nH]3)nc(N(Cc3ccccc3)CC(C)C)c2)ccc1Cl` [Example 188, 6-(2-(1H-tetrazol-5-yl)phenyl)-N2-benzyl-N4-(4-chloro-3-methoxyphenyl)-N2-isobutylpyridine-2,4-diamine], 2 nM; as for `CC(C)CN(Cc1ccccc1)c1cc(Nc2cccc(OC(F)(F)C(F)F)c2)cc(-c2ccccc2-c2nnn[nH]2)n1` [Example 189, 6-(2-(1H-tetrazol-5-yl)phenyl)-N2-benzyl-N2-isobutyl-N4-(3-(1,1,2,2-tetrafluoroethoxy)phenyl)pyridine-2,4-diamine], 9.3 nM.
In the case of `COc1cc(Nc2cc(-c3ccccc3-c3nnn[nH]3)nc(N(Cc3ccccc3)CC(C)C)c2)ccc1F` [Example 190, 6-(2-(1H-tetrazol-5-yl)phenyl)-N2-benzyl-N4-(4-fluoro-3-methoxyphenyl)-N2-isobutylpyridine-2,4-diamine] it was 8.5 nM; in that of `CC(C)CN(Cc1ccccc1)c1cc(Nc2cccc(C(F)F)c2)cc(-c2ccccc2-c2nnn[nH]2)n1` [Example 191, 6-(2-(1H-tetrazol-5-yl)phenyl)-N2-benzyl-N4-(3-(difluoromethyl)phenyl)-N2-isobutylpyridine-2,4-diamine], 26.4 nM; in that of `CC(C)CN(Cc1ccccc1)c1cc(Nc2cccc(C#N)c2)cc(-c2ccccc2-c2nnn[nH]2)n1` [Example 192, 3-((2-(2-(1H-tetrazol-5-yl)phenyl)-6-(benzyl(isobutyl)amino)pyridin-4-yl)amino)benzonitrile], 19.8 nM.
Turning to `CC(C)CN(Cc1ccccc1)c1cc(Nc2cccc(OC(F)(F)F)c2)cc(-c2ccccc2-c2nnn[nH]2)n1` [Example 193, 6-(2-(1H-tetrazol-5-yl)phenyl)-N2-benzyl-N2-isobutyl-N4-(3-(trifluoromethoxy)phenyl)pyridine-2,4-diamine], the IC50 amounted to 14.1 nM.
With `CC(C)CN(Cc1ccccc1)c1cc(Nc2ccccc2C#N)cc(-c2ccccc2-c2nnn[nH]2)n1` [Example 194, 2-((2-(2-(1H-tetrazol-5-yl)phenyl)-6-(benzyl(isobutyl)amino)pyridin-4-yl)amino)benzonitrile], the IC50 worked out at 230 nM.
In the case of `CC(C)CN(Cc1ccccc1)c1cc(Nc2cccc(C(F)F)n2)cc(-c2ccccc2-c2nnn[nH]2)n1` [Example 195, 6-(2-(1H-tetrazol-5-yl)phenyl)-N2-benzyl-N4-(6-(difluoromethyl)pyridin-2-yl)-N2-isobutylpyridine-2,4-diamine] it was 19.8 nM; in that of `COc1cccc(Nc2cc(-c3ccccc3-c3nnn[nH]3)nc(N(Cc3ccccc3)CC(C)C)c2)c1` [Example 196, 6-(2-(1H-tetrazol-5-yl)phenyl)-N2-benzyl-N2-isobutyl-N4-(3-methoxyphenyl)pyridine-2,4-diamine], 7 nM.
As for `COc1cc(F)cc(Nc2cc(-c3ccccc3-c3nnn[nH]3)nc(N(Cc3ccccc3)CC(C)C)c2)c1` [Example 197, 6-(2-(1H-tetrazol-5-yl)phenyl)-N2-benzyl-N4-(3-fluoro-5-methoxyphenyl)-N2-isobutylpyridine-2,4-diamine], the figure is 5.8 nM; as for `COc1ccc(Nc2cc(-c3ccccc3-c3nnn[nH]3)nc(N(Cc3ccccc3)CC(C)C)c2)cc1C(N)=O` [Example 198, 5-((2-(2-(1H-tetrazol-5-yl)phenyl)-6-(benzyl(isobutyl)amino)pyridin-4-yl)amino)-2-methoxybenzamide], 2960 nM; as for `CCCN(Cc1ccccc1)c1cc(NC(=O)Cc2cncc(Br)c2)cc(-c2ccccc2-c2nn[nH]n2)n1` [Example 199, N-(2-(2-(2H-tetrazol-5-yl)phenyl)-6-(benzyl(propyl)amino)-yl)-2-(5-bromopyridin-3-yl)acetamide], 239 nM.
In the case of `CCCN(Cc1ccccc1)c1cc(NC(=O)Cc2cccc3ccccc23)cc(-c2ccccc2-c2nn[nH]n2)n1` [Example 200, N-(2-(2-(2H-tetrazol-5-yl)phenyl)-6-(benzyl(propyl)amino)pyridin-4-yl)-2-(naphthalen-1-yl)acetamide] it was 82.4 nM.
With `CCCN(Cc1ccccc1)c1cc(NC(=O)Cc2ccc3ccccc3c2)cc(-c2ccccc2-c2nn[nH]n2)n1` [Example 201, N-(2-(2-(2H-tetrazol-5-yl)phenyl)-6-(benzyl(propyl)amino)pyridin-4-yl)-2-(naphthalen-2-yl)acetamide], the IC50 was found to be 34.2 nM.
In the case of `CCCN(Cc1ccccc1)c1cc(NC(=O)Cc2ccccc2F)cc(-c2ccccc2-c2nn[nH]n2)n1` [Example 202, N-(2-(2-(2H-tetrazol-5-yl)phenyl)-6-(benzyl(propyl)amino)pyridin-4-yl)-2-(2-fluorophenyl)acetamide] it was 202 nM.
In the case of `CCCN(Cc1ccccc1)c1cc(NC(=O)Cc2ccccc2OC)cc(-c2ccccc2-c2nn[nH]n2)n1` [Example 203, N-(2-(2-(2H-tetrazol-5-yl)phenyl)-6-(benzyl(propyl)amino)pyridin-4-yl)-2-(2-methoxyphenyl)acetamide], the half-inhibitory concentration (IC50) came to 305 nM.
Consider `CCCN(Cc1ccccc1)c1cc(NC(=O)Cc2cc(OC)ccc2OC)cc(-c2ccccc2-c2nn[nH]n2)n1` [Example 204, N-(2-(2-(2H-tetrazol-5-yl)phenyl)-6-(benzyl(propyl)amino)pyridin-4-yl)-2-(2,5-dimethoxyphenyl)acetamide], for which the IC50 came to 159 nM.
In the case of `CCCN(Cc1ccccc1)c1cc(NC(=O)Cc2ccccc2C(F)(F)F)cc(-c2ccccc2-c2nn[nH]n2)n1` [Example 205, N-(2-(2-(2H-tetrazol-5-yl)phenyl)-6-(benzyl(propyl)amino)pyridin-4-yl)-2-(2-(trifluoromethyl)phenyl)acetamide], the IC50 turned out to be 80.2 nM.
In the case of `CCCN(Cc1ccccc1)c1cc(NC(=O)Cc2cccs2)cc(-c2ccccc2-c2nn[nH]n2)n1` [Example 206, N-(2-(2-(2H-tetrazol-5-yl)phenyl)-6-(benzyl(propyl)amino)pyridin-4-yl)-2-(thiophen-2-yl)acetamide] it was 323 nM; in that of `CCCN(Cc1ccccc1)c1cc(NC(=O)Cc2c[nH]cn2)cc(-c2ccccc2-c2nn[nH]n2)n1` [Example 207, N-(2-(2-(2H-tetrazol-5-yl)phenyl)-6-(benzyl(propyl)amino)pyridin-4-yl)-2-(1H-imidazol-4-yl)acetamide], 3430 nM; in that of `CCCN(Cc1ccccc1)c1cc(NC(=O)Cc2cc(OC)cc(OC)c2)cc(-c2ccccc2-c2nn[nH]n2)n1` [Example 208, N-(2-(2-(2H-tetrazol-5-yl)phenyl)-6-(benzyl(propyl)amino)pyridin-4-yl)-2-(3,5-dimethoxyphenyl)acetamide], 544 nM.
As for `CCCN(Cc1ccccc1)c1cc(NC(=O)Cc2cnccn2)cc(-c2ccccc2-c2nn[nH]n2)n1` [Example 210, N-(2-(2-(2H-tetrazol-5-yl)phenyl)-6-(benzyl(propyl)amino)pyridin-4-yl)-2-(pyrazin-2-yl)acetamide], the figure is 1710 nM; as for `CCCN(Cc1ccccc1)c1cc(NC(=O)Cc2csc(C)n2)cc(-c2ccccc2-c2nn[nH]n2)n1` [Example 211, N-(2-(2-(2H-tetrazol-5-yl)phenyl)-6-(benzyl(propyl)amino)pyridin-4-yl)-2-(2-methylthiazol-4-yl)acetamide], 906 nM; as for `CCCN(Cc1ccccc1)c1cc(NC(=O)C(F)c2ccccc2)cc(-c2ccccc2-c2nn[nH]n2)n1` (stereo not shown) [Example 212, N-(2-(2-(2H-tetrazol-5-yl)phenyl)-6-(benzyl(propyl)amino)pyridin-4-yl)-2-fluoro-2-phenylacetamide], 224 nM.
In the case of `CCCN(Cc1ccccc1)c1cc(NC(=O)Cc2c(C)noc2C)cc(-c2ccccc2-c2nn[nH]n2)n1` [Example 213, N-(2-(2-(2H-tetrazol-5-yl)phenyl)-6-(benzyl(propyl)amino)pyridin-4-yl)-2-(3,5-dimethylisoxazol-4-yl)acetamide], the IC50 was found to be 651 nM.
